Experimental data reported in PubChem BioAssay (NCI).
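Briefly, cells in 96-well plates were exposed to five compound concentrations for 48 h, and endpoints were estimated by linear interpolation. The concentration for 50% growth inhibition is given as GI50. TGI denotes the concentration required for complete inhibition of growth.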

Legend:
Experiment in all cases: NCI-60 cell line screen, 48 h
SK-MEL-2 melanoma = tested on: SK-MEL-2 melanoma
SF-295 CNS = tested on: SF-295 CNS
OVCAR-3 ovarian = tested on: OVCAR-3 ovarian
HOP-62 NSCLC = tested on: HOP-62 NSCLC
RXF 393 renal = tested on: RXF 393 renal
A549 NSCLC = tested on: A549 NSCLC
COLO 205 colon = tested on: COLO 205 colon
NCI-H460 lung = tested on: NCI-H460 lung
SNB-19 CNS = tested on: SNB-19 CNS
OVCAR-4 ovarian = tested on: OVCAR-4 ovarian

## C/C(CC(=O)Nc1ccccc1C)=N/NS(=O)(=O)c1ccc(C)cc1
SK-MEL-2 melanoma
  TGI: > 100 µM
SF-295 CNS
  TGI: > 100 µM
OVCAR-3 ovarian
  TGI: > 100 µM
HOP-62 NSCLC
  TGI: > 100 µM
RXF 393 renal
  TGI: > 100 µM
A549 NSCLC
  TGI: > 100 µM
COLO 205 colon
  TGI: > 100 µM
NCI-H460 lung
  TGI: > 100 µM

## Cc1c(Cl)cccc1NC(=O)/C=C/c1ccccc1
SK-MEL-2 melanoma
  TGI: > 100 µM
SF-295 CNS
  TGI: > 100 µM
OVCAR-3 ovarian
  TGI: > 100 µM
HOP-62 NSCLC
  TGI: > 100 µM
A549 NSCLC
  TGI: > 100 µM
COLO 205 colon
  TGI: > 100 µM
SNB-19 CNS
  TGI: > 100 µM
OVCAR-4 ovarian
  TGI: > 100 µM
NCI-H460 lung
  TGI: > 100 µM

## O=C1C=Cc2c1ccc1ccccc21
SK-MEL-2 melanoma
  GI50: 72.9 µM
  TGI: > 100 µM
SF-295 CNS
  GI50: 20.8 µM
  TGI: 63.6 µM
HOP-62 NSCLC
  GI50: 14.3 µM
  TGI: 50 µM
A549 NSCLC
  GI50: 18.3 µM
  TGI: 65.8 µM
COLO 205 colon
  GI50: 30.9 µM
  TGI: > 100 µM
SNB-19 CNS
  GI50: 33 µM
  TGI: > 100 µM
OVCAR-4 ovarian
  GI50: 75.2 µM
  TGI: > 100 µM
NCI-H460 lung
  GI50: 35.7 µM
  TGI: > 100 µM

## Cc1cc(C)c(C(=O)O)c(SSc2cc(C)cc(C)c2C(=O)O)c1
SK-MEL-2 melanoma
  TGI: > 100 µM
SF-295 CNS
  TGI: > 100 µM
HOP-62 NSCLC
  TGI: > 100 µM
RXF 393 renal
  TGI: > 100 µM
A549 NSCLC
  TGI: > 100 µM
COLO 205 colon
  TGI: > 100 µM
SNB-19 CNS
  TGI: > 100 µM
OVCAR-4 ovarian
  TGI: > 100 µM
NCI-H460 lung
  TGI: > 100 µM

## O=c1oc2cc(OC/C(=N/O)c3ccc(F)cc3)ccc2c2ccccc12
SK-MEL-2 melanoma
  GI50: 21.3 µM
  TGI: 40 µM
SF-295 CNS
  GI50: 18.4 µM
  TGI: 41.5 µM
OVCAR-3 ovarian
  GI50: 17.6 µM
  TGI: 40.6 µM
HOP-62 NSCLC
  GI50: 18.1 µM
  TGI: 34.2 µM
RXF 393 renal
  GI50: 14.7 µM
  TGI: 32.5 µM
A549 NSCLC
  GI50: 18.2 µM
  TGI: 45.7 µM
COLO 205 colon
  GI50: 25.3 µM
  TGI: 61.4 µM
SNB-19 CNS
  GI50: 21.8 µM
  TGI: 46.3 µM
NCI-H460 lung
  GI50: 16.9 µM
  TGI: 35.2 µM

## COc1cc(NS(C)(=O)=O)ccc1NCc1c2ccccc2nc2ccccc12
SK-MEL-2 melanoma
  TGI: > 100 µM
SF-295 CNS
  TGI: > 100 µM
OVCAR-3 ovarian
  TGI: > 100 µM
RXF 393 renal
  TGI: 57.5 µM
A549 NSCLC
  TGI: > 100 µM
COLO 205 colon
  TGI: > 100 µM
SNB-19 CNS
  TGI: > 100 µM
OVCAR-4 ovarian
  TGI: 22.3 µM
NCI-H460 lung
  TGI: > 100 µM

## NCCNC(=O)c1cccc2cc3ccccc3nc12
SK-MEL-2 melanoma
  TGI: 7.81 µM
SF-295 CNS
  TGI: > 20.9 µM
OVCAR-3 ovarian
  TGI: 15.4 µM
HOP-62 NSCLC
  TGI: 5.02 µM
RXF 393 renal
  TGI: 10.2 µM
A549 NSCLC
  TGI: > 100 µM
SNB-19 CNS
  TGI: 19.1 µM
OVCAR-4 ovarian
  TGI: 15.2 µM

## NC(=O)c1cccc(OCC(O)CO)c1 (stereo unspecified)
SK-MEL-2 melanoma
  TGI: > 100 µM
SF-295 CNS
  TGI: > 100 µM
OVCAR-3 ovarian
  TGI: > 100 µM
HOP-62 NSCLC
  TGI: > 100 µM
A549 NSCLC
  TGI: > 100 µM
COLO 205 colon
  TGI: > 100 µM
SNB-19 CNS
  TGI: > 100 µM
OVCAR-4 ovarian
  TGI: > 100 µM
NCI-H460 lung
  TGI: > 100 µM

## COc1ccc2oc(-c3ccc(OC)c(OC)c3OC)cc(=O)c2c1
SK-MEL-2 melanoma
  TGI: > 100 µM
SF-295 CNS
  TGI: > 100 µM
OVCAR-3 ovarian
  TGI: > 100 µM
HOP-62 NSCLC
  TGI: > 100 µM
RXF 393 renal
  TGI: 93.8 µM
A549 NSCLC
  TGI: > 100 µM
COLO 205 colon
  TGI: > 100 µM
SNB-19 CNS
  TGI: > 100 µM
OVCAR-4 ovarian
  TGI: > 100 µM

## Cc1nc(N)nc(N)c1CCCc1ccccc1
SK-MEL-2 melanoma
  TGI: > 100 µM
SF-295 CNS
  TGI: > 100 µM
OVCAR-3 ovarian
  TGI: > 100 µM
HOP-62 NSCLC
  TGI: 56.8 µM
A549 NSCLC
  TGI: > 100 µM
COLO 205 colon
  TGI: > 100 µM
SNB-19 CNS
  TGI: > 100 µM
OVCAR-4 ovarian
  TGI: > 100 µM
NCI-H460 lung
  TGI: > 100 µM

## c1ccc(SC23C4C5C6C4C2C6C53)nc1 (stereo unspecified)
SK-MEL-2 melanoma
  TGI: > 100 µM
SF-295 CNS
  TGI: > 100 µM
OVCAR-3 ovarian
  TGI: > 100 µM
HOP-62 NSCLC
  TGI: > 100 µM
A549 NSCLC
  TGI: > 100 µM
COLO 205 colon
  TGI: > 100 µM
SNB-19 CNS
  TGI: > 100 µM
OVCAR-4 ovarian
  TGI: > 100 µM
NCI-H460 lung
  TGI: > 100 µM

## CC1(C)OC(=O)C(C#N)=C1C[n+]1ccccc1
SK-MEL-2 melanoma
  TGI: > 10 µM
SF-295 CNS
  TGI: > 10 µM
OVCAR-3 ovarian
  TGI: > 10 µM
HOP-62 NSCLC
  TGI: > 10 µM
RXF 393 renal
  TGI: > 10 µM
COLO 205 colon
  TGI: > 10 µM
SNB-19 CNS
  TGI: > 10 µM
OVCAR-4 ovarian
  TGI: > 10 µM
NCI-H460 lung
  TGI: > 10 µM

## CC(=O)/C=C/C1=C(c2csc3ccccc23)c2ccccc2CC1
SK-MEL-2 melanoma
  GI50: 15.2 µM
  TGI: 40.9 µM
SF-295 CNS
  GI50: 21 µM
  TGI: 65.2 µM
OVCAR-3 ovarian
  GI50: 13.6 µM
  TGI: 43.3 µM
HOP-62 NSCLC
  GI50: 44.5 µM
  TGI: > 100 µM
RXF 393 renal
  GI50: 20.2 µM
  TGI: 46.5 µM
A549 NSCLC
  GI50: 24 µM
  TGI: > 100 µM
COLO 205 colon
  GI50: 20.5 µM
  TGI: 64.8 µM
SNB-19 CNS
  GI50: 32.5 µM
  TGI: > 100 µM
OVCAR-4 ovarian
  GI50: 17.8 µM
  TGI: > 100 µM

## N#CC(C#N)=Cc1ccc(CP(=O)(O)O)cc1
SK-MEL-2 melanoma
  TGI: > 100 µM
SF-295 CNS
  TGI: > 100 µM
OVCAR-3 ovarian
  TGI: > 100 µM
HOP-62 NSCLC
  TGI: > 100 µM
A549 NSCLC
  TGI: > 100 µM
COLO 205 colon
  TGI: > 100 µM
SNB-19 CNS
  TGI: > 100 µM
OVCAR-4 ovarian
  TGI: > 100 µM
NCI-H460 lung
  TGI: > 100 µM

## Cc1ccc(NC(=O)/C(Cc2cc(=O)oc3cc(O)ccc23)=N\NC(C)(C)C)cc1C
SK-MEL-2 melanoma
  TGI: > 100 µM
SF-295 CNS
  TGI: > 100 µM
OVCAR-3 ovarian
  TGI: > 100 µM
RXF 393 renal
  TGI: > 100 µM
A549 NSCLC
  TGI: > 100 µM
COLO 205 colon
  TGI: > 100 µM
SNB-19 CNS
  TGI: > 100 µM
OVCAR-4 ovarian
  TGI: > 100 µM
NCI-H460 lung
  TGI: > 100 µM

## COc1cc(C(=O)O[C@H](C(=O)NCCN(C)CCNC(=O)[C@@H](OC(=O)c2cc(OC)cc3c(C)cccc23)[C@]2(C)CO2)[C@]2(C)CO2)c2cccc(C)c2c1
SK-MEL-2 melanoma
  GI50: 0.253 µM
  TGI: > 100 µM
SF-295 CNS
  GI50: < 0.0337 µM
  TGI: 0.182 µM
HOP-62 NSCLC
  GI50: 0.893 µM
  TGI: 7.85 µM
COLO 205 colon
  GI50: 0.0391 µM
  TGI: 1.55 µM
SNB-19 CNS
  GI50: 0.265 µM
  TGI: 1.18 µM
OVCAR-4 ovarian
  GI50: 0.056 µM
  TGI: 0.679 µM
NCI-H460 lung
  GI50: < 0.01 µM
  TGI: 1.61 µM

## COc1ccc2c(c1OC)C(C(Cl)(Cl)Cl)N1CCc3cc4c(cc3C1=C2)OCO4 (stereo unspecified)
SK-MEL-2 melanoma
  TGI: 39.4 µM
SF-295 CNS
  TGI: > 100 µM
OVCAR-3 ovarian
  TGI: 65.8 µM
A549 NSCLC
  TGI: > 100 µM
COLO 205 colon
  TGI: 20.8 µM
SNB-19 CNS
  TGI: > 100 µM
OVCAR-4 ovarian
  TGI: 69 µM
NCI-H460 lung
  TGI: 55.3 µM

## COC(=O)C(=O)C(C(=O)C(=O)Nc1ccccc1OC)c1nc2ccc([N+](=O)[O-])cc2[nH]c1=O (stereo unspecified)
SK-MEL-2 melanoma
  TGI: > 100 µM
SF-295 CNS
  TGI: > 100 µM
OVCAR-3 ovarian
  TGI: > 100 µM
HOP-62 NSCLC
  TGI: > 100 µM
RXF 393 renal
  TGI: > 100 µM
A549 NSCLC
  TGI: > 100 µM
SNB-19 CNS
  TGI: > 100 µM
OVCAR-4 ovarian
  TGI: > 100 µM
NCI-H460 lung
  TGI: > 100 µM

## COc1cc2c(cc1OC)C1Cc3ccc(OC)c(OC)c3C[N+]1([O-])CC2 (stereo unspecified)
SK-MEL-2 melanoma
  TGI: > 100 µM
SF-295 CNS
  TGI: > 100 µM
OVCAR-3 ovarian
  TGI: > 100 µM
HOP-62 NSCLC
  TGI: > 100 µM
A549 NSCLC
  TGI: > 100 µM
SNB-19 CNS
  TGI: > 100 µM
OVCAR-4 ovarian
  TGI: > 100 µM
NCI-H460 lung
  TGI: > 100 µM

## CCCCCC[C@@H](C)NC(=O)c1ccc(Nc2nc3ccccc3c3occc23)cc1
SK-MEL-2 melanoma
  GI50: 2.51 µM
  TGI: 7.23 µM
SF-295 CNS
  GI50: 4.39 µM
  TGI: > 100 µM
OVCAR-3 ovarian
  GI50: 2.88 µM
  TGI: > 100 µM
HOP-62 NSCLC
  GI50: 3.28 µM
  TGI: 27.7 µM
RXF 393 renal
  GI50: 3.41 µM
  TGI: 9.84 µM
A549 NSCLC
  GI50: 3.17 µM
  TGI: > 100 µM
COLO 205 colon
  GI50: 3.08 µM
SNB-19 CNS
  GI50: 5.54 µM
  TGI: > 100 µM
NCI-H460 lung
  GI50: 3.87 µM
  TGI: > 100 µM

## COc1ccc2c(c1)NC1(O)c3ccccc3C(=O)C21O (stereo unspecified)
SF-295 CNS
  TGI: > 100 µM
OVCAR-3 ovarian
  TGI: > 100 µM
HOP-62 NSCLC
  TGI: > 100 µM
A549 NSCLC
  TGI: > 100 µM
COLO 205 colon
  TGI: > 100 µM
SNB-19 CNS
  TGI: > 100 µM
NCI-H460 lung
  TGI: > 100 µM
